The experiment concerns Molt-4 cell line. The format is cell-based. Particulars: 48 h. The procedure: Molt-4 cell line (ATCC catalog #CRL-1582) was grown in specific serum-supplemented media (RPMI-1640, Invitrogen catalog #72400) as recommended by ATCC. A day prior to the initiation of the study, cells were split at optimal cell density (2×10^5-5×10^5 cells/ml) to assure actively dividing cells. The next day, cells were washed twice in serum-free Opti-MEM media (Invitrogen, Catalog #51985) and cells were then plated at optimal cell density (10,000 cells/well) in 50 μl Opti-MEM media or Opti-MEM supplemented with 2%, 4% or 10% human serum (Bioreclamation, catalog #HMSRM) in 96-well white tissue culture plate (Nunc, catalog #136102).
For serum free experiment, peptidomimetic macrocycles were diluted from 2 mM stocks (100% DMSO) in sterile water to prepare 400 μM working solutions. The macrocycles and controls were diluted 10-fold first and then serially two-fold diluted in Opti-MEM in dosing plates to provide concentrations of between 1.2 and 40 μM. 50 μL of each dilution was then added to the appropriate wells of the test plate to achieve final concentrations of the polypeptides equal to between 0.6 to 20 μM. For studies using Opti-MEM supplemented with human serum (Bioreclamation, catalog #HMSRM), peptidomimetic macrocycles were diluted from 10 mM stocks (100% DMSO) in sterile water to prepare 2 mM working solutions. The peptide macrocycles and controls were diluted 10-fold first and then serially two-fold diluted in Opti-MEM in the presence of 2%, 4% or 10% of human serum to provide concentrations of the polypeptides equal to between 6.25 to 200 μM in dosing plates. 50 μL of each dilution was then added to the appropriate welts of the test plate to achieve final concentrations of the polypeptides equal to between 3.125 to 100 μM. Controls included wells without polypeptides containing the same concentration of DMSO as the wells containing the macrocycles, wells containing 0.1% Triton X-100 and wells containing no cells. Plates were incubated for 48 hours at 37° C. in humidified 5% CO2 atmosphere.
At the end of the incubation period, CellTiter-Glo assay was performed according to manufacturer's instructions (Promega, catalog #G7573) and luminescence was measured using Synergy HT Plate reader (BioTek).
The following macrocycles derived from the human MAML peptide sequences were tested in cell viability assays with the MOLT-4 tumor cell line: […]

Each structure is given as a SMILES string. pEC50: −log10 of the molar value. Where a SMILES comes first, the peptide text is derived from it. Bridges are numbered along the chain shown (N, C = ends). [ ]: non-standard residue; d: D form. S5 = C=CCCC[C@](C)(N)C(=O)O; Abu = CC[C@H](N)C(=O)O

The text below walks through data of US20120115793A1, “PEPTIDOMIMETIC MACROCYCLES” (Alleron Therapeutics, Inc, priority 2008, published 2012).

As usually defined, the pEC50 is the negative decadic logarithm of the EC50, by convention in mol/L.

In the case of `CC[C@H](C)[C@H](NC(=O)[C@H](CCCNC(=N)N)NC(=O)[C@H](CCCNC(=N)N)NC(=O)[C@H](CCCNC(=N)N)NC(=O)[C@H](CC(C)C)NC(=O)[C@H](CCCNC(=N)N)NC(=O)[C@H](CCC(=O)O)NC(C)=O)C(=O)N[C@@H](CCC(=O)O)C(=O)N[C@@H](CC(C)C)C(=O)N[C@@H](C)C(=O)N[C@@H](C)C(=O)N[C@@H](CCCNC(=N)N)C(=O)N[C@@H](Cc1c[nH]cn1)C(=O)N[C@@H](Cc1c[nH]cn1)C(=O)N[C@@]1(C)CCCC=CCCC[C@@](C)(C(=O)N[C@@H](CCCNC(=N)N)C(=O)N[C@@H](Cc2ccc(O)cc2)C(=O)N[C@@H](CCC(=O)O)C(=O)N[C@@H](C)C(=O)N[C@H](C(N)=O)C(C)C)NC(=O)[C@H](CCC(=O)O)NC(=O)[C@H](C)NC(=O)[C@H]([C@@H](C)O)NC1=O` [Compound 22, Ac-ERLRRRIELAARHH$TAE$RYEAV-NH2] (Ac-ERLRRRIELAARHH[S5]TAE[S5]RYEAV-NH2; staple 15-19), the negative logarithm of the EC50 (pEC50) is < 4.70.

For `CC[C@@H]1NC(=O)[C@H](CC(C)C)NC(=O)[C@@](C)(NC(=O)[C@@H](NC(=O)[C@H](CCCNC(=N)N)NC(=O)[C@H](CCCNC(=N)N)NC(=O)[C@H](CCCNC(=N)N)NC(=O)[C@H](CC(C)C)NC(=O)[C@H](C)NC(C)=O)[C@@H](C)CC)CCCC=CCCC[C@@](C)(C(=O)N[C@@H](Cc2c[nH]cn2)C(=O)N[C@@H](Cc2c[nH]cn2)C(=O)N[C@@H](CO)C(=O)N[C@H](C(=O)N[C@@H](C)C(=O)N[C@@H](CCC(=O)O)C(=O)N[C@@H](C)C(=O)N[C@@H](CCCNC(=N)N)C(=O)N[C@@H](Cc2ccc(O)cc2)C(=O)N[C@@H](CCC(=O)O)C(=O)N[C@@H](C)C(=O)N[C@H](C(N)=O)C(C)C)[C@@H](C)O)NC(=O)[C@H](C)NC1=O` [Compound 26, Ac-ALRRRI$LAbuA$HHSTAEARYEAV-NH2] (Ac-ALRRRI[S5]L[Abu]A[S5]HHSTAEARYEAV-NH2; staple 7-11), the pEC50 is < 4.70.

As to `CC[C@H](C)[C@H](NC(=O)[C@H](CCCNC(=N)N)NC(=O)[C@H](CCCNC(=N)N)NC(C)=O)C(=O)N[C@@H](CCC(=O)O)C(=O)N[C@@H](CC(C)C)C(=O)N[C@@H](C)C(=O)N[C@@H](CCCNC(=N)N)C(=O)N[C@@H](CCCNC(=N)N)C(=O)N[C@@H](Cc1c[nH]cn1)C(=O)N[C@@H](Cc1c[nH]cn1)C(=O)N[C@@]1(C)CCCC=CCCC[C@@](C)(C(=O)N[C@@H](CCCNC(=N)N)C(=O)N[C@@H](Cc2ccc(O)cc2)C(=O)N[C@@H](CCC(=O)O)C(=O)N[C@@H](C)C(=O)N[C@H](C(N)=O)C(C)C)NC(=O)[C@H](CCC(=O)O)NC(=O)[C@H](C)NC(=O)[C@H]([C@@H](C)O)NC1=O` [Compound 17, Ac-RRIELARRHH$TAE$RYEAV-NH2] (Ac-RRIELARRHH[S5]TAE[S5]RYEAV-NH2; staple 11-15), the negative-log EC50 (pEC50) is < 4.70.

With `CC[C@H](C)[C@H](NC(=O)[C@H](CCCNC(=N)N)NC(=O)[C@H](CCCNC(=N)N)NC(C)=O)C(=O)N[C@@H](CCC(=O)O)C(=O)N[C@@H](CC(C)C)C(=O)N[C@@H](C)C(=O)N[C@@H](CCCNC(=N)N)C(=O)N[C@@H](CCCNC(=N)N)C(=O)N[C@@]1(C)CCCC=CCCC[C@@](C)(C(=O)N[C@@H](CCC(=O)O)C(=O)N[C@@H](C)C(=O)N[C@@H](CCCNC(=N)N)C(=O)N[C@@H](Cc2ccc(O)cc2)C(=O)N[C@@H](CCC(=O)O)C(=O)N[C@@H](C)C(=O)N[C@H](C(N)=O)C(C)C)NC(=O)[C@H]([C@@H](C)O)NC(=O)[C@H](CO)NC(=O)[C@H](Cc2c[nH]cn2)NC1=O` [Compound 18, Ac-RRIELARR$HST$EARYEAV-NH2] (Ac-RRIELARR[S5]HST[S5]EARYEAV-NH2; staple 9-13), the pEC50 was < 4.70.
